From the supplement of paper PMC10307832

Columns and labels:
Test in all cases: relative viability (nuclei count vs DMSO), 5 days (fraction); higher = more cells survive
UMC-11 = tested on: UMC-11
How it was run: (§1)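 Dosing by pin tool came one day after lung cancer cell lines were seeded in 1536-well plates, using either one drug or a fixed anchor-drug dose plus five library-drug doses (not always all listed) in √10 steps. After 5 days, nuclei were counted on 4× images. Relative viability is treated-well nuclei count divided by vehicle-well nuclei count, and values are medians of duplicate plates.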

ABC-1 = tested on: ABC-1
How it was run: as §1

HOP-62 = tested on: HOP-62
How it was run: as §1

NCI-H2085 = tested on: NCI-H2085
How it was run: as §1

NCI-H1975 = tested on: NCI-H1975
How it was run: as §1

COR-L 105 = tested on: COR-L 105
How it was run: as §1

EMC-BAC-2 = tested on: EMC-BAC-2
How it was run: as §1

NCI-H1915 = tested on: NCI-H1915
How it was run: as §1

NCI-H322M = tested on: NCI-H322M
How it was run: as §1

NCI-H358 = tested on: NCI-H358
How it was run: as §1

NCI-H3122 = tested on: NCI-H3122
How it was run: as §1

EPLC-272H = tested on: EPLC-272H
How it was run: as §1

LXF-289 = tested on: LXF-289
How it was run: as §1

HCC-15 = tested on: HCC-15
How it was run: as §1

ChaGo-K-1 = tested on: ChaGo-K-1
How it was run: as §1

CAL-12T = tested on: CAL-12T
How it was run: as §1

NCI-H1755 = tested on: NCI-H1755
How it was run: as §1

NCI-H2023 = tested on: NCI-H2023
How it was run: as §1

NCI-H1666 = tested on: NCI-H1666
How it was run: as §1

NCI-H441 = tested on: NCI-H441
How it was run: as §1

NCI-H2126 = tested on: NCI-H2126
How it was run: as §1

SMILES: COc1cc2nccc(Oc3ccc(NC(=O)Nc4cc(C)on4)c(Cl)c3)c2cc1OC [Tivozanib] + CCNC(=O)c1noc(-c2cc(C(C)C)c(O)cc2O)c1-c1ccc(CN2CCOCC2)cc1 [Luminespib] (partner 0.01 µM)
- relative viability (UMC-11; first compound 0.005 µM): 1.03
- relative viability (UMC-11; first compound 0.01581 µM): 0.975
- relative viability (UMC-11; first compound 0.05 µM): 1.03
- relative viability (UMC-11; first compound 0.5 µM): 1.06
- relative viability (ABC-1; first compound 0.005 µM): 0.692
- relative viability (ABC-1; first compound 0.05 µM): 0.429
- relative viability (ABC-1; first compound 0.1581 µM): 0.389
- relative viability (ABC-1; first compound 0.5 µM): 0.215
- relative viability (HOP-62; first compound 0.005 µM): 0.857
- relative viability (HOP-62; first compound 0.01581 µM): 0.961
- relative viability (HOP-62; first compound 0.05 µM): 0.894
- relative viability (HOP-62; first compound 0.1581 µM): 0.932
- relative viability (HOP-62; first compound 0.5 µM): 0.918
- relative viability (NCI-H2085; first compound 0.005 µM): 0.431
- relative viability (NCI-H2085; first compound 0.01581 µM): 0.4
- relative viability (NCI-H2085; first compound 0.05 µM): 0.469
- relative viability (NCI-H2085; first compound 0.1581 µM): 0.431
- relative viability (NCI-H2085; first compound 0.5 µM): 0.522
- relative viability (NCI-H1975; first compound 0.005 µM): 0.172
- relative viability (NCI-H1975; first compound 0.01581 µM): 0.34
- relative viability (NCI-H1975; first compound 0.05 µM): 0.199
- relative viability (NCI-H1975; first compound 0.1581 µM): 0.198
- relative viability (NCI-H1975; first compound 0.5 µM): 0.316
- relative viability (COR-L 105; first compound 0.005 µM): 0.669
- relative viability (COR-L 105; first compound 0.01581 µM): 0.657
- relative viability (COR-L 105; first compound 0.05 µM): 1.07
- relative viability (COR-L 105; first compound 0.1581 µM): 0.734
- relative viability (COR-L 105; first compound 0.5 µM): 0.751
- relative viability (EMC-BAC-2; first compound 0.005 µM): 1.13
- relative viability (EMC-BAC-2; first compound 0.01581 µM): 1.18
- relative viability (EMC-BAC-2; first compound 0.05 µM): 1.26
- relative viability (EMC-BAC-2; first compound 0.1581 µM): 1.13
- relative viability (EMC-BAC-2; first compound 0.5 µM): 1.16
- relative viability (NCI-H1915; first compound 0.005 µM): 0.719
- relative viability (NCI-H1915; first compound 0.01581 µM): 0.855
- relative viability (NCI-H1915; first compound 0.05 µM): 0.848
- relative viability (NCI-H1915; first compound 0.1581 µM): 0.799
- relative viability (NCI-H1915; first compound 0.5 µM): 0.8
- relative viability (NCI-H322M; first compound 0.005 µM): 0.797
- relative viability (NCI-H322M; first compound 0.01581 µM): 0.882
- relative viability (NCI-H322M; first compound 0.05 µM): 0.958
- relative viability (NCI-H322M; first compound 0.1581 µM): 0.694
- relative viability (NCI-H322M; first compound 0.5 µM): 0.965
- relative viability (NCI-H358; first compound 0.005 µM): 0.336
- relative viability (NCI-H358; first compound 0.01581 µM): 0.568
- relative viability (NCI-H358; first compound 0.05 µM): 0.478
- relative viability (NCI-H358; first compound 0.5 µM): 0.339
- relative viability (NCI-H3122; first compound 0.005 µM): 0.0849
- relative viability (NCI-H3122; first compound 0.01581 µM): 0.104
- relative viability (NCI-H3122; first compound 0.05 µM): 0.0902
- relative viability (NCI-H3122; first compound 0.1581 µM): 0.0689
- relative viability (NCI-H3122; first compound 0.5 µM): 0.0976
- relative viability (EPLC-272H; first compound 0.005 µM): 0.24
- relative viability (EPLC-272H; first compound 0.01581 µM): 0.383
- relative viability (EPLC-272H; first compound 0.05 µM): 0.34
- relative viability (EPLC-272H; first compound 0.1581 µM): 0.242
- relative viability (EPLC-272H; first compound 0.5 µM): 0.443
- relative viability (LXF-289; first compound 0.005 µM): 0.582
- relative viability (LXF-289; first compound 0.01581 µM): 0.611
- relative viability (LXF-289; first compound 0.05 µM): 0.641
- relative viability (LXF-289; first compound 0.1581 µM): 0.689
- relative viability (LXF-289; first compound 0.5 µM): 0.773
- relative viability (HCC-15; first compound 0.005 µM): 0.249
- relative viability (HCC-15; first compound 0.01581 µM): 0.382
- relative viability (HCC-15; first compound 0.05 µM): 0.327
- relative viability (HCC-15; first compound 0.1581 µM): 0.398
- relative viability (HCC-15; first compound 0.5 µM): 0.378
- relative viability (ChaGo-K-1; first compound 0.005 µM): 0.622
- relative viability (ChaGo-K-1; first compound 0.01581 µM): 0.565
- relative viability (ChaGo-K-1; first compound 0.05 µM): 0.593
- relative viability (ChaGo-K-1; first compound 0.1581 µM): 0.497
- relative viability (ChaGo-K-1; first compound 0.5 µM): 0.502
- relative viability (CAL-12T; first compound 0.005 µM): 0.253
- relative viability (CAL-12T; first compound 0.01581 µM): 0.36
- relative viability (CAL-12T; first compound 0.05 µM): 0.573
- relative viability (CAL-12T; first compound 0.1581 µM): 0.276
- relative viability (CAL-12T; first compound 0.5 µM): 0.594
- relative viability (NCI-H1755; first compound 0.005 µM): 0.466
- relative viability (NCI-H1755; first compound 0.01581 µM): 0.346
- relative viability (NCI-H1755; first compound 0.05 µM): 0.406
- relative viability (NCI-H1755; first compound 0.1581 µM): 0.329
- relative viability (NCI-H1755; first compound 0.5 µM): 0.453
- relative viability (NCI-H2023; first compound 0.005 µM): 0.664
- relative viability (NCI-H2023; first compound 0.01581 µM): 0.698
- relative viability (NCI-H2023; first compound 0.05 µM): 0.681
- relative viability (NCI-H2023; first compound 0.1581 µM): 0.748
- relative viability (NCI-H2023; first compound 0.5 µM): 0.763
- relative viability (NCI-H1666; first compound 0.005 µM): 0.89
- relative viability (NCI-H1666; first compound 0.01581 µM): 0.998
- relative viability (NCI-H1666; first compound 0.05 µM): 0.993
- relative viability (NCI-H1666; first compound 0.1581 µM): 1.01
- relative viability (NCI-H1666; first compound 0.5 µM): 1
- relative viability (NCI-H441; first compound 0.005 µM): 0.367
- relative viability (NCI-H441; first compound 0.01581 µM): 0.446
- relative viability (NCI-H441; first compound 0.05 µM): 0.308
- relative viability (NCI-H441; first compound 0.1581 µM): 0.322
- relative viability (NCI-H441; first compound 0.5 µM): 0.399
- relative viability (NCI-H2126; first compound 0.005 µM): 0.823
- relative viability (NCI-H2126; first compound 0.01581 µM): 0.964
- relative viability (NCI-H2126; first compound 0.05 µM): 0.875
- relative viability (NCI-H2126; first compound 0.1581 µM): 0.697
- relative viability (NCI-H2126; first compound 0.5 µM): 0.855
